What was measured:
EcR-Usp complexes [1] = biological target: T1, EcR-Usp complexes (Drosophila melanogaster, UniProt P34021); assay: Competitive displacement of 3H-Ponasterone A binding to extract of yeast co-expressing EcR and Usp; conditions: unlabelled ligand, FIG. 4, read-out: IC50 for displacing 3H-Ponasterone binding
T1 construct: An immunoreactive polypeptide corresponding to the full EcR (100 kDa) was detected; ubiquitin (N, cleaved yes); made in house; host or cells: Saccharomyces cerevisiae strain BJ2168 (plasmids YEpEcR and YEpcUSP); unpurified cytosolic extract
T1 sequence (P34021 1-878): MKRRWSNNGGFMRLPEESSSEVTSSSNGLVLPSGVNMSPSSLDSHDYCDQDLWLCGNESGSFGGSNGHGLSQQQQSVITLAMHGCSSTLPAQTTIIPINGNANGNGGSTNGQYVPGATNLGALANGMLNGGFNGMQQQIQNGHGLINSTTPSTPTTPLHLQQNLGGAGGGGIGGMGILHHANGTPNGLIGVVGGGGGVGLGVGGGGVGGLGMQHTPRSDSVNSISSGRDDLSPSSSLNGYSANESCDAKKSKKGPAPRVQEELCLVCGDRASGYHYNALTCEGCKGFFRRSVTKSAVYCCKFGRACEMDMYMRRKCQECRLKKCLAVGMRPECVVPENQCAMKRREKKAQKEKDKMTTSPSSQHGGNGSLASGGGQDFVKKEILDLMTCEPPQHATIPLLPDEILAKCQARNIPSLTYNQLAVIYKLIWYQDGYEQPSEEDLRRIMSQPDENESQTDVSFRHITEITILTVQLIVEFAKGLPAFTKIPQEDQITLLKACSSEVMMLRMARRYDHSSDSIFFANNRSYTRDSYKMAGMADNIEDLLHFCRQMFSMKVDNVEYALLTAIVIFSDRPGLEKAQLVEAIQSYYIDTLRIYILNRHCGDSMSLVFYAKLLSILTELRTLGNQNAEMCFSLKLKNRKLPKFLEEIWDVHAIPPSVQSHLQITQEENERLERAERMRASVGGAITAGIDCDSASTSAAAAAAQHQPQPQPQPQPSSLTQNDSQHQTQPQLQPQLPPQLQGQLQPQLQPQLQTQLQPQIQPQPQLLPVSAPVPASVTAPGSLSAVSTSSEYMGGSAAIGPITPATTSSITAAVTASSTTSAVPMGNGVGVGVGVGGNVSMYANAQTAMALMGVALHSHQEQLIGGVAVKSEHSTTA
T1 sequence (P20153 1-508 partner): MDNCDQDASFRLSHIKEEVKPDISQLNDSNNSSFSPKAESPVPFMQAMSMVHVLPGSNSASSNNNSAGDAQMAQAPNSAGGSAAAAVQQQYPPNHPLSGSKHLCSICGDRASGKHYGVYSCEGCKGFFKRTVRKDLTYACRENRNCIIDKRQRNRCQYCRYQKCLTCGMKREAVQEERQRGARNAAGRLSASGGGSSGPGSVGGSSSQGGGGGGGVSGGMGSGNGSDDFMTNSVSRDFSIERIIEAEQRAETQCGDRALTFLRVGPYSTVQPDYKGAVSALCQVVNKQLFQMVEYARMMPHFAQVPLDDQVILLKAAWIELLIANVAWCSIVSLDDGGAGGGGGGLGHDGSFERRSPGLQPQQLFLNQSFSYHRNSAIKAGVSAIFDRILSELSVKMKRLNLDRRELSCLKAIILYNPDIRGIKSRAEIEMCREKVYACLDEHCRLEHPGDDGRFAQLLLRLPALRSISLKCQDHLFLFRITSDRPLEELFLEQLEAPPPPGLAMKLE
Experimental: (§1) Overnight cultures of yeast strains expressing EcR, Usp, EcR+Usp, and EcR+RxR were inoculated into 1 liter of selective medium and incubated for 16 h at 30° C. In strains expressing Usp, cupric sulfate was added to a final concentration of 100 μM and the culture incubated an additional 4 h at 30° C. The cells were harvested by centrifugation and washed twice in cold TEDG buffer (10 mM Tris-HCl, pH 8.0, 0.1 mM EDTA, 2 mM dithiothreitol, 10% glycerol). The cell pellet was then resuspended in TEDG buffer containing 0.4M NaCl, and vortexed with glass beads in ten 30-second bursts. The resulting homogenate is centrifuged at 1000×g for 10 min, after which the supernatant is centrifuged at 100,000×g for 30 min. The final supernatant is collected, diluted to 12.5 mg/ml protein with TEDG buffer, and stored in aliquots at −80° C.
(§2) The following components were added to each reaction mixture:
(§3) (i) 40 μl yeast extract (12.5 mg/ml protein);
(ii) 20 μl ^3H-Ponasterone A (New England Nuclear, 195 Ci/mmol; 20 μl contains 100,000 cpm and a final concentration of 2.5 nM in the reaction mixture);
(iii) 120 μl TEDG buffer containing the following protease inhibitors: PMSF (Sigma Chemical Co.), 0.15 mg/ml; leupeptin (Bachem), 0.04 mg/ml; chymostatin (Bachem), 0.03 mg/ml; and pepstatin (Sigma), 0.01 mg/ml; and
(iv) 20 μl test sample, 25 μM Muristerone A, or control diluent.
(§4) The reactions were incubated for 1 h at room temperature or at least 12 h at 4° C. Protein-bound and -free radioactivity were separated by hydroxylapatite chromatography or by filtration, the individual samples suspended in scintillation fluid and the radioactivity determined by scintillation counting.
Specificity of hormone binding to the yeast extract was measured by testing the ability of four known (unlabelled) EcR ligands to displace 3H-Ponasterone binding.
The methods described in Example 2 above were used to test a collection of natural products for EcR binding activity (FIG. 7). The products were tested at 1 and 10 μg/ml. Of 92 compounds tested, one (present in well H8) displaced 62% of ^3H-Ponasterone A binding activity at 10 μg/ml.
A chemical library containing 6592 samples was also screened using the methods described above. Each sample was present at 10 μg/ml. Compounds that displaced at least 75% of the radiolabel were scored as positives. These compounds were then used to generate competitive binding curves as described above.

[2] = cited from earlier work
[3] = cited from earlier work; remark: listed apart in the source
EcR-Usp complexes [4] = biological target: T1, EcR-Usp complexes; assay: Saturation and Scatchard analysis of 3H-Ponasterone A binding to extract of yeast co-expressing EcR and Usp; conditions: extract from yeast strain co-expressing EcR and Usp
Experimental: as §1, §2, §3
(ii) 20 μl ^3H-Ponasterone A (New England Nuclear, 195 Ci/mmol; 20 μl contains 100,000 cpm and a final concentration of 2.5 nM in the reaction mixture); […]
as §4, with “counting. […]” for “counting.”

Compound	IC50 (EcR-Usp complexes [1]) [nM]	fold less active in binding assays compared with 20-hydroxyecdysone [2]	fold less active in bioassays compared with 20-hydroxyecdysone [3]	Kd (EcR-Usp complexes [4]) [nM]
20-hydroxyecdysone	500	–	–	–
CC(C)(C)N(NC(=O)c1ccccc1)C(=O)c1ccccc1 [RH5849]	12000	at least 30 fold	at least 100 fold	–
CC(C)CC[C@@H](O)[C@](C)(O)[C@H]1CC[C@@]2(O)C3=CC(=O)[C@]4(O)C[C@@H](O)[C@@H](O)C[C@]4(C)[C@H]3[C@H](O)C[C@]12C [muristerone A]	15	–	–	–
CC(C)CC[C@@H](O)[C@](C)(O)[C@H]1CC[C@@]2(O)C3=CC(=O)[C@@H]4C[C@@H](O)[C@@H](O)C[C@]4(C)[C@H]3CC[C@]12C [ponasterone A]	2	–	–	–
^3H-Ponasterone A	–	–	–	1.8

— patent publication US20020164637A1, “SCREEN FOR ECDYSONE RECEPTOR LIGANDS” (priority 1996, published 2002)
